This is an account of results in patent US8735406B2, “8-oxodihydropurine derivative” (Dainippon Sumitomo Pharma Co., Ltd., priority 2009, dated 2014).

For orientation: inhibition means the drop in the measured response relative to a control, in per cent. Broadly, the IC50 is the concentration that gives 50% inhibition.

In this assay the target is T1, FAAH (Rattus norvegicus, UniProt P97612).
T1 construct: Preparation of Rat Brain Membranes Preparations (FAAH Enzyme Solution); from tissue; host or cells: rat cerebrum (brain membrane preparation)
T1 sequence (P97612 1-579): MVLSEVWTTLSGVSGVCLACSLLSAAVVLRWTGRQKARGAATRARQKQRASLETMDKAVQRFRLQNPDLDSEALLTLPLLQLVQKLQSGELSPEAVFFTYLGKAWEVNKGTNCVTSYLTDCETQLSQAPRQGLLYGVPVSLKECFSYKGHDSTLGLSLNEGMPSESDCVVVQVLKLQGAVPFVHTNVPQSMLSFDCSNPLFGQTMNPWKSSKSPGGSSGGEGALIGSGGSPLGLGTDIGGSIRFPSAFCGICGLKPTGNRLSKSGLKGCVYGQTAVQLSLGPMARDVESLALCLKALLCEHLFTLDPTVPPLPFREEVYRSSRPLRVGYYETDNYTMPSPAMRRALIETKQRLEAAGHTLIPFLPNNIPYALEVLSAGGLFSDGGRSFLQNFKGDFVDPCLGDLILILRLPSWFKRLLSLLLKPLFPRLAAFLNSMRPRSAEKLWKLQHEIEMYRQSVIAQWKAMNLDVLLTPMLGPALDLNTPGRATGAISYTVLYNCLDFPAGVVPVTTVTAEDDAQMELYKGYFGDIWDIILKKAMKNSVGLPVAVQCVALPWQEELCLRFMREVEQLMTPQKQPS
As to the kind of experiment: Determination of FAAH inhibitory activity in rat (rat brain membrane preparations, [3H]-anandamide hydrolysis). In kind it is biochemical. As to conditions: rat brain membrane preparations; for IC50: read-out: FAAH Inhibition IC50. The procedure, abridged:
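Compounds tested from 0.1 nM to 1 μM to derive IC50 against FAAH hydrolysis in rat brain membrane preparations (100 μg/mL). A 10-min 37 °C preincubation was followed by 10 min with [3H]-anandamide (2 nM) mixed with 2 μM unlabelled anandamide. Radioactive ethanolamine was extracted into the water/methanol layer and counted.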

The mark [1] stands for this setting: at 100 nM, read-out: FAAH Inhibition Inhibition Rate at 100 nM.
Setting [2] is: 100 nM test substance, read-out: FAAH Inhibition, Inhibition Rate at 100 nM.

Read-outs that look alike come from different tables or passages of the source. Bounds are passed on as bounds.

In the case of `CCn1c(=O)n(C(=O)N(C)C)c2nc(CCc3cccc(F)c3)ncc21` [Example 644, 7-Ethyl-2-[2-(3-fluorophenyl)ethyl]-N,N-dimethyl-8-oxo-7,8-dihydro-9H-purine-9-carboxamide], the IC50 amounted to 10 nM. Under setting [1], the inhibition at 0.1 µM amounted to 95%.

Turning to `CCn1c(=O)n(C(=O)N(C)C)c2nc(CCc3ccc(F)cc3)ncc21` [Example 645, 7-Ethyl-2-[2-(4-fluorophenyl)ethyl]-N,N-dimethyl-8-oxo-7,8-dihydro-9H-purine-9-carboxamide], the IC50 amounted to 20 nM. Moreover, under setting [1], the inhibition at 0.1 µM was determined as 98%.

`CCCn1c(=O)n(C(=O)N(C)C)c2nc(CCc3ccccc3F)ncc21` [Example 646, 2-[2-(2-Fluorophenyl)ethyl]-N,N-dimethyl-8-oxo-7-propyl-7,8-dihydro-9H-purine-9-carboxamide]: the IC50 turned out to be 13 nM. Moreover, the inhibition at 0.1 µM under setting [1] came to 117%.

On to `CCCn1c(=O)n(C(=O)N(C)C)c2nc(CCc3cccc(F)c3)ncc21` [Example 647, 2-[2-(3-Fluorophenyl)ethyl]-N,N-dimethyl-8-oxo-7-propyl-7,8-dihydro-9H-purine-9-carboxamide], for which the IC50 was found to be 10 nM. The inhibition at 0.1 µM under setting [1] amounted to 100%.

As for `CCCn1c(=O)n(C(=O)N(C)C)c2nc(CCc3ccc(F)cc3)ncc21` [Example 648, 2-[2-(4-Fluorophenyl)ethyl]-N,N-dimethyl-8-oxo-7-propyl-7,8-dihydro-9H-purine-9-carboxamide], the IC50 was 27 nM. The inhibition at 0.1 µM under setting [1] stood at 87%.

With `CCn1c(=O)n(C(=O)N2CCC2)c2nc(CCc3ccccc3F)ncc21` [Example 649, 9-(Azetidin-1-ylcarbonyl)-7-ethyl-2-[2-(2-fluorophenyl)ethyl]-7,9-dihydro-8H-purine-8-one], the IC50 is 17 nM. The inhibition at 0.1 µM under setting [1] was determined as 90%.

Consider `CCn1c(=O)n(C(=O)N2CCC2)c2nc(CCc3cccc(F)c3)ncc21` [Example 650, 9-(Azetidin-1-ylcarbonyl)-7-ethyl-2-[2-(3-fluorophenyl)ethyl]-7,9-dihydro-8H-purine-8-one], for which the IC50 was determined as 10 nM. Further, the inhibition at 0.1 µM under setting [1] was determined as 96%.

As to `CCn1c(=O)n(C(=O)N2CCC2)c2nc(CCc3ccc(F)cc3)ncc21` [Example 651, 9-(Azetidin-1-ylcarbonyl)-7-ethyl-2-[2-(4-fluorophenyl)ethyl]-7,9-dihydro-8H-purine-8-one], the concentration for half-maximal inhibition (IC50) stood at 9 nM. Further, the inhibition at 0.1 µM under setting [1] turned out to be 100%.

Turning to `CN(C)C(=O)n1c(=O)n(C)c2cnc(Cc3cccc(C(F)(F)F)c3)nc21` [Example 654, N,N,7-Trimethyl-8-oxo-2-[3-(trifluoromethyl)benzyl]-7,8-dihydro-9H-purine-9-carboxamide], the IC50 worked out at 11 nM. Also, the inhibition at 0.1 µM under setting [1] was 110%.

`CCn1c(=O)n(C(=O)N2CC(c3ccccc3)C2)c2cnc(COC)nc21` [Example 655, 9-Ethyl-2-(methoxymethyl)-7-[(3-phenylazetidin-1-yl)carbonyl]-7,9-dihydro-8H-purine-8-one]: the IC50 turned out to be 10 nM. Moreover, the inhibition at 0.1 µM under setting [1] turned out to be 102%.

As for `CCn1c(=O)n(C(=O)N2CC(c3ccc(F)cc3)C2)c2cnc(COC)nc21` [Example 656, 9-Ethyl-7-{[3-(4-fluorophenyl)azetidin-1-yl]carbonyl}-2-(methoxymethyl)-7,9-dihydro-8H-purine-8-one], the IC50 was 10 nM. Also, the inhibition at 0.1 µM under setting [1] amounted to 115%.

Turning to `CCn1c(=O)n(C(=O)N2CC(c3cccc(F)c3)C2)c2cnc(COC)nc21` [Example 657, 9-Ethyl-7-{[3-(3-fluorophenyl)azetidin-1-yl]carbonyl}-2-(methoxymethyl)-7,9-dihydro-8H-purine-8-one], the IC50 was determined as 9 nM. Besides, the inhibition at 0.1 µM under setting [1] worked out at 119%.

For the compound `CCCn1c(=O)n(C(=O)N2CC(c3ccccc3)C2)c2cnc(COC)nc21` [Example 658, 2-(Methoxymethyl)-7-[(3-phenylazetidin-1-yl)carbonyl]-9-propyl-7,9-dihydro-8H-purine-8-one], the IC50 was determined as 15 nM. Besides, the inhibition at 0.1 µM under setting [1] was found to be 86%.

For `CCCn1c(=O)n(C(=O)N2CC(c3ccc(F)cc3)C2)c2cnc(COC)nc21` [Example 659, 7-{[3-(4-Fluorophenyl)azetidin-1-yl]carbonyl}-2-(methoxymethyl)-9-propyl-7,9-dihydro-8H-purine-8-one], the IC50 is 6 nM. Besides, under setting [1], the inhibition at 0.1 µM worked out at 112%.

For the compound `CCCn1c(=O)n(C(=O)N2CC(c3cccc(F)c3)C2)c2cnc(COC)nc21` [Example 660, 7-{[3-(3-Fluorophenyl)azetidin-1-yl]carbonyl}-2-(methoxymethyl)-9-propyl-7,9-dihydro-8H-purine-8-one], the IC50 turned out to be 10 nM. Moreover, the inhibition at 0.1 µM under setting [1] was found to be 121%.

Consider `CCCn1c(=O)n(C(=O)N2CC(c3ccccc3F)C2)c2cnc(COC)nc21` [Example 661, 7-{[3-(2-Fluorophenyl)azetidin-1-yl]carbonyl}-2-(methoxymethyl)-9-propyl-7,9-dihydro-8H-purine-8-one], for which the IC50 was determined as 36 nM. Also, the inhibition at 0.1 µM under setting [1] stood at 82%.

Turning to `CCCn1c(=O)n(C(=O)N2CC(c3cccc(C(F)(F)F)c3)C2)c2cnc(COC)nc21` [Example 662, 2-(Methoxymethyl)-9-propyl-7-({3-[3-(trifluoromethyl)phenyl]azetidin-1-yl}carbonyl)-7,9-dihydro-8H-purine-8-one], the IC50 stood at 8 nM. In addition, under setting [1], the inhibition at 0.1 µM stood at 97%.

Consider `Cn1c(=O)n(C(=O)N2CCCC2)c2cnc(/C=C/c3ccc(C(F)(F)F)cc3)nc21` [compound 3], for which the inhibition at 0.1 µM under setting [2] was 59%. In addition, the IC50 (test substance 0.1 nM to 1 μM) was found to be 86 nM.

Take `Cn1c(=O)n(C(=O)N2CCCC2)c2cnc(/C=C/c3cccc(C(F)(F)F)c3)nc21` [compound 10]: the inhibition at 0.1 µM under setting [2] amounted to 23%. Moreover, the IC50 (test substance 0.1 nM to 1 μM) is > 100 nM.

As for `Cn1c(=O)n(C(=O)N2CCCC2)c2cnc(CCc3cccc(F)c3)nc21` [compound 13], the inhibition at 0.1 µM under setting [2] came to 91%. Moreover, the IC50 (test substance 0.1 nM to 1 μM) came out at 42 nM.

As for `COc1cccc(CCc2ncc3c(n2)n(C)c(=O)n3C(=O)N2CCCC2)c1` [compound 15], the inhibition at 0.1 µM under setting [2] worked out at 75%. In addition, the IC50 (test substance 0.1 nM to 1 μM) worked out at 63 nM.

Regarding `Cc1ccccc1-c1ncc2c(n1)n(C)c(=O)n2C(=O)N1CCCC1` [compound 169], under setting [2], the inhibition at 0.1 µM was 78%. The IC50 (test substance 0.1 nM to 1 μM) stood at 41 nM.

With `COc1ccccc1-c1ncc2c(n1)n(C)c(=O)n2C(=O)N1CCCC1` [compound 172], the inhibition at 0.1 µM under setting [2] came out at 67%. The IC50 (test substance 0.1 nM to 1 μM) stood at 69 nM.

As for `COc1ccc(-c2ncc3c(n2)n(C)c(=O)n3C(=O)N2CCCC2)cc1` [compound 174], under setting [2], the inhibition at 0.1 µM came out at 102%. Further, the 50% inhibitory concentration (IC50) (test substance 0.1 nM to 1 μM) worked out at 6 nM.

Regarding `CCOc1cccc(-c2ncc3c(n2)n(C)c(=O)n3C(=O)N2CCCC2)c1` [compound 175], the inhibition at 0.1 µM under setting [2] turned out to be 101%. Also, the IC50 (test substance 0.1 nM to 1 μM) is 7 nM.

For `CCOc1ccc(-c2ncc3c(n2)n(C)c(=O)n3C(=O)N2CCCC2)cc1` [compound 176], under setting [2], the inhibition at 0.1 µM came out at 100%. For the same compound, the IC50 (test substance 0.1 nM to 1 μM) came out at 10 nM.

For `Cn1c(=O)n(C(=O)N2CCCC2)c2cnc(-c3ccc(OC(F)(F)F)cc3)nc21` [compound 177], the inhibition at 0.1 µM under setting [2] was determined as 78%. The IC50 (test substance 0.1 nM to 1 μM) turned out to be 58 nM.

For the compound `Cn1c(=O)n(C(=O)N2CCCC2)c2cnc(-c3ccc(C(F)(F)F)cc3)nc21` [compound 178], under setting [2], the inhibition at 0.1 µM came out at 96%. Moreover, for the setting “test substance 0.1 nM to 1 μM”, the IC50 came out at 42 nM.

As for `Cn1c(=O)n(C(=O)N2CCCC2)c2cnc(-c3ccc(-c4ccccc4)cc3)nc21` [compound 179], under setting [2], the inhibition at 0.1 µM amounted to 97%. For the same compound, where the note is “test substance 0.1 nM to 1 μM”, the half-maximal inhibitory concentration (IC50) came to 44 nM.

In the case of `CCCc1ccc(-c2ncc3c(n2)n(C)c(=O)n3C(=O)N2CCCC2)cc1` [compound 180], the inhibition at 0.1 µM under setting [2] turned out to be 99%. Further, the IC50 (test substance 0.1 nM to 1 μM) was found to be 38 nM.

Take `Cn1c(=O)n(C(=O)N2CCCC2)c2cnc(-c3ccc(C#N)cc3)nc21` [compound 181]: the inhibition at 0.1 µM under setting [2] is 101%. Also, the IC50 (test substance 0.1 nM to 1 μM) came out at 4 nM.

For `CC(=O)c1ccc(-c2ncc3c(n2)n(C)c(=O)n3C(=O)N2CCCC2)cc1` [compound 184], the inhibition at 0.1 µM under setting [2] is 102%. In addition, where the note is “test substance 0.1 nM to 1 μM”, the IC50 is 4 nM.

Regarding `Cn1c(=O)n(C(=O)N2CCCC2)c2cnc(-c3ccc(C(C)(C)C)cc3)nc21` [compound 185], the inhibition at 0.1 µM under setting [2] is 58%. Further, the IC50 (test substance 0.1 nM to 1 μM) was 89 nM.

Consider `CC(=O)c1cccc(-c2ncc3c(n2)n(C)c(=O)n3C(=O)N2CCCC2)c1` [compound 186], for which, under setting [2], the inhibition at 0.1 µM worked out at 102%. For the same compound, under “test substance 0.1 nM to 1 μM”, the IC50 was 7 nM.

Take `Cn1c(=O)n(C(=O)N2CCCC2)c2cnc(-c3ccc(F)cc3F)nc21` [compound 188]: the inhibition at 0.1 µM under setting [2] was 99%. Besides, under “test substance 0.1 nM to 1 μM”, the IC50 is 9 nM.
